Experimental data published in ChEMBL document CHEMBL1140752, “High confidence predictions of drug-drug interactions: predicting affinities for cytochrome P450 2C9 with multiple computational methods” (J Med Chem, 2008).

Target: Cytochrome P450 2C9 (Homo sapiens, UniProt P11712)
Test: Inhibition of CYP2C9
Format: ADME

Sequence of Cytochrome P450 2C9 (P11712 whole entry): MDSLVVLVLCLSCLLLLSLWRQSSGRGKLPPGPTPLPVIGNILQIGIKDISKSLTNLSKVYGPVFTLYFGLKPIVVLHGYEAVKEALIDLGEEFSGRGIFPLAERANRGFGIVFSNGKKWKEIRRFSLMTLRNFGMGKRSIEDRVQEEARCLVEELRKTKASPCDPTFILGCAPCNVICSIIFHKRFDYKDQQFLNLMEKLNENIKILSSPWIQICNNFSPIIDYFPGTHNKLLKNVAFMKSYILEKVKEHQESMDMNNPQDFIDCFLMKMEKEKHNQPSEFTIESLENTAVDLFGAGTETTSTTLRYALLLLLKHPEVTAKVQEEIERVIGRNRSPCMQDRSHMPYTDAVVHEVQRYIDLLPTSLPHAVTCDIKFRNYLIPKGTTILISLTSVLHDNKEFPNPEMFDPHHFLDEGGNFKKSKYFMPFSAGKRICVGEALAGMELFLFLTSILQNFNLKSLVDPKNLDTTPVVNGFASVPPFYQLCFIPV

Ki: 101 nM
Structure (SMILES): CCc1oc2ccccc2c(=O)c1C(=O)c1cc(Br)c(O)c(Br)c1
